Measured values published in article PMC10960472 (Veterinary Research, 2024).
Converted amounts (≈) assume the structure as drawn. Where two headings read alike, the source gives them in different places. No end group written: not given here.

How the values were obtained:
E. coli RS218 [1] = experiment: microbe, parasite or virus in culture; details: Escherichia coli; for MBC: RS218, read-out: MBC, E. coli RS218, colony counting on LB agar from wells without visible growth; for MIC: RS218, read-out: MIC, E. coli RS218, MHB microdilution, 16-20 h at 37 °C, triplicate, lowest concentration inhibiting visual growth
E. coli PCN033 [2] = test system: E. coli PCN033
E. coli RS218 [3] = test system: E. coli RS218
E. coli PCN033 [4] = experiment: microbe, parasite or virus in culture; details: Escherichia coli; for MBC: PCN033, read-out: MBC, E. coli PCN033, colony counting on LB agar from wells without visible growth; for MIC: PCN033, read-out: MIC, E. coli PCN033, MHB microdilution, 16-20 h at 37 °C, triplicate, lowest concentration inhibiting visual growth
PCN033 and RS218 = experiment: MIC and MBC, summary over both strains; type: cell-based; details: Escherichia coli; for MBC: read-out: MBCs against PCN033 and RS218; for MIC: read-out: MICs against PCN033 and RS218
PCN033 [5] = experiment: Time-kill curve assay; type: cell-based, Escherichia coli; details: sub-MBC: PMAP-36 1/4 MBC, tetracycline 1/16 MBC, gentamicin 1/8 MBC, 37 °C
[6] = test system: monocytes and macrophages in the PLF; experiment: Flow cytometry of immune cells in peritoneal lavage fluid of infected mice; type: in vivo, mouse; details: 12 h post-infection, flow cytometry F4/80 and Gr-1, n = 3/group
Description: Mice were infected and treated with the test compounds as described above. After 12 h of infection, PLF was collected with 2 mL of sterile PBS, and the cells were centrifuged at 1800 rpm for 3 min. Then, the cells were blocked with 1 mL of 2% bovine serum albumin (BSA) in PBS for 30 min. An anti-mouse CD16/32 antibody (1:50) (BioLegend, CA, USA) was used to block nonspecific antibody binding in 0.5% BSA buffer for 30 min at 4 °C. Next, the cells were stained with PE-conjugated anti-mouse F4/80 antibody (1:50) (BioLegend, CA, USA) and FITC-conjugated anti-mouse Ly-6G/Ly-6C (Gr-1) antibody (1:200) (BioLegend, CA, USA) in 0.5% BSA for 30 min at 4 °C. Afterwards, the cells were washed twice with 150 μL of 2% BSA and analysed using flow cytometry.

E. coli PCN033 [7] = experiment: Checkerboard assay, fractional bactericidal concentration index; type: cell-based, Escherichia coli; details: PMAP-36 with tetracycline, against multidrug-resistant porcine ExPEC
PCN033 [8] = experiment: Mouse model of systemic infection with PCN033; type: in vivo; details: C57BL/6 mice, 1 × 10^7 CFU PCN033 i.p., 30 mg/kg tetracycline i.p. 2 h after infection, n = 10/group
Description: Female C57BL/6 mice (6–8 weeks old) were obtained from Chongqing Lepitt Biotechnology Co., Ltd. This study was approved by the Institutional Animal Care and Use Committee (IACUC) of Southwest University, Chongqing, China (IACUC-20221022-18). […] Afterwards, different assays were performed as described below.
For the generation of survival curves, mice (n = 10/group) were monitored every 6 h until 72 h post-infection. Statistical analysis was conducted by the log rank (Mantel‒Cox) test in GraphPad Prism 8.0 software.
Mice (n = 5/group) were euthanized at 12 h post-infection. Then, organs (spleen, liver, and lung), blood and peritoneal lavage fluid (PLF) were collected and homogenized to determine the bacterial load via serial tenfold dilutions, plating on LB agar plates, and incubation at 37 °C overnight.
For histopathological observation, mice (n = 3/group) were euthanized at 12 h post-infection. Then, the lung tissues were fixed with 10% formaldehyde for over one week and embedded in paraffin for histological analysis.
For cytokine detection, the mice (n = 3/group) were euthanized at 12 h post-infection. Then, the expression of inflammatory cytokines (IL-1α, IL-1β, IL-6, IL-12 and TNF-α) in the lungs, liver, spleen, and PLF and the expression of chemokines (CXCL1 and CXCL2) in the PLF were determined using ELISA kits. […]

PCN033 [9] = type: cell-based, Escherichia coli
PCN033 [10] = experiment: Scanning electron microscopy of treated bacteria; type: cell-based, Escherichia coli; details: tetracycline 1/16 MBC, PMAP-36 1/4 MBC, alone or combined, MHB 37 °C
[11] = MHB microdilution, 16-20 h at 37 °C, triplicate, lowest concentration inhibiting visual growth
[12] = colony counting on LB agar from wells without visible growth

| Compound | MBC (E. coli RS218 [1]) [µM] | MIC (E. coli RS218 [1]) [µM] | MIC, E. coli PCN033 (E. coli PCN033 [2]; [11]) | MBC, E. coli PCN033 (E. coli PCN033 [2]; [12]) | MIC (E. coli PCN033 [4]) [µM] | MBC, E. coli PCN033 (E. coli PCN033 [2]; PCN033) [µM] | MIC, E. coli PCN033 (E. coli PCN033 [2]; PCN033) [µM] | MBC, E. coli RS218 (E. coli RS218 [3]; RS218) [µM] | MIC, E. coli RS218 (E. coli RS218 [3]; RS218) [µM] | other results |
| --- | --- | --- | --- | --- | --- | --- | --- | --- | --- | --- |
| CC1(C)S[C@@H]2[C@H](NC(=O)[C@H](N)c3ccccc3)C(=O)N2[C@H]1C(=O)O [Ampicillin, ampicillin] | 5 to 20 (≈ 1.75 to 6.99 µg/mL) | 2.5 to 10 (≈ 0.874 to 3.49 µg/mL) | 20,480 μM | 40,960 μM |  |  |  |  |  | MIC, E. coli PCN033 (E. coli PCN033 [2]; MHB microdilution, 16-20 h at 37 °C, triplicate, lowest concentration inhibiting visual growth, listed as ampicillin): greater than 160 μM; MBC, E. coli PCN033 (E. coli PCN033 [2]; colony counting on LB agar from wells without visible growth, listed as ampicillin): greater than 1280 μM; MIC, E. coli RS218 (E. coli RS218 [3]; [11]): 5 µM (≈ 1.75 µg/mL); MBC, E. coli RS218 (E. coli RS218 [3]; [12]): 10 µM (≈ 3.49 µg/mL) |
| CO/N=C(\C(=O)N[C@@H]1C(=O)N2C(C(=O)O)=C(COC(C)=O)CS[C@H]12)c1csc(N)n1 [Cefotaxime, cefotaxime] | < 0.625 | < 0.625 |  |  | < 0.625 |  |  |  |  | MBC (E. coli PCN033 [4]): < 0.625 µM; MBC (PCN033 and RS218): < 0.625 µM; MIC (PCN033 and RS218): < 0.625 µM |
| CNC(C)C1CCC(N)C(OC2C(N)CC(N)C(OC3OCC(C)(O)C(NC)C3O)C2O)O1 (stereo not shown) [Gentamicin, gentamicin] | 5 to 20 (≈ 2.39 to 9.55 µg/mL) | 2.5 to 10 (≈ 1.19 to 4.78 µg/mL) | 320 µM (≈ 153 µg/mL) | 1280 µM (≈ 611 µg/mL) | > 160 |  |  |  |  | bactericidal activity within 120 min, agent alone (PCN033 [5]): did not show obvious bactericidal activity; MBC (E. coli PCN033 [4]): > 1280 µM; MIC, E. coli RS218 (E. coli RS218 [3]; [11]): 2.5 µM (≈ 1.19 µg/mL); MBC, E. coli RS218 (E. coli RS218 [3]; [12]): 5 µM (≈ 2.39 µg/mL) |
| Cc1onc(-c2ccccc2)c1C(=O)N[C@@H]1C(=O)N2[C@@H]1SC(C)(C)[C@@H]2C(=O)O [Oxacillin, oxacillin] | 1280 (≈ 514 µg/mL) | 320 (≈ 128 µg/mL) | 5120 µM (≈ 2060 µg/mL) | 10,240 μM |  |  |  |  |  | MIC, E. coli PCN033 (E. coli PCN033 [2]; MHB microdilution, 16-20 h at 37 °C, triplicate, lowest concentration inhibiting visual growth, listed as oxacillin): greater than 160 μM |
| [H]/N=C(/N)N[C@H]1[C@H](O)[C@@H](O)[C@H](O[C@@H]2O[C@@H](C)[C@](O)(C=O)[C@H]2O[C@@H]2O[C@@H](CO)[C@H](O)[C@@H](O)[C@@H]2NC)[C@@H](N/C(N)=N\[H])[C@@H]1O [Streptomycin, streptomycin] | > 41000 | 41000 (≈ 23800 µg/mL) |  |  | > 160 |  |  |  |  |  |
| CN(C)[C@@H]1C(O)=C(C(N)=O)C(=O)[C@@]2(O)C(O)=C3C(=O)c4c(O)cccc4[C@@](C)(O)[C@H]3C[C@@H]12 [Tetracycline, tetracycline] | 5 (≈ 2.22 µg/mL) | 2.5 (≈ 1.11 µg/mL) |  |  | 160 (≈ 71.1 µg/mL) |  |  |  |  | number of monocytes and macrophages in the PLF [6]: only slightly increased; decrease of MBC when used in combination (E. coli PCN033 [7]): 16 fold; MBC (E. coli PCN033 [4]): 160 µM (≈ 71.1 µg/mL); time within which all treated mice died (PCN033 [8]): ≤ 24 h; MBC (PCN033 and RS218): 5 to 320 µM (≈ 2.22 to 142 µg/mL); MIC (PCN033 and RS218): 2.5 to 320 µM (≈ 1.11 to 142 µg/mL); increase of the MIC of tetracycline, 10th generation (PCN033 [9]): 1.5 fold; change of the MIC of tetracycline after 30 generations (PCN033 [9]; PCN033 grown at sub-MIC: tetracycline 1/4 MIC, PMAP-36 1/4 MIC, or 1/8 MIC + 1/8 MIC, normalised to first generation): threefold; cell morphology under SEM (PCN033 [10]): slight cell shrinkage |
| GLLRKGGEKIGEKLKKIGQKIKNFFQKLVPQPEQ [CRAMP] |  |  | 10 µM | 20 µM |  |  |  |  |  | MIC, E. coli RS218 (E. coli RS218 [3]; [11]): 5 µM; MBC, E. coli RS218 (E. coli RS218 [3]; [12]): 20 µM |
| GRFRRLRKKTRKRLKKIGKVLKWIPPIVGSIPLGCG [PMAP-36, porcine myeloid antimicrobial peptide 36] |  |  |  |  |  | 10 | 2.5 | 5 | 2.5 |  |
| PIRNWWIRIWEWLNGIRKRLRQRSPFYVRGHLNVTSTPQP [CATH-B1] |  |  |  |  |  | > 40 | > 40 | > 40 | > 40 |  |
| RFGRFLRKIRRFRPKVTITIQGSARF [CATH-2] |  |  |  |  |  | 20 | 10 | 10 | 5 |  |
| RRRPRPPYLPRPRPPPFFPPRLPPRIPPGFPPRFPPRFP [PR-39] |  |  |  |  |  | 10 | 5 | 5 | 2.5 |  |
| RVKRFWPLVPVAINTVAAGINLYKAIRRK [CATH-3] |  |  |  |  |  | 20 | 10 | 10 | 5 |  |
